Laboratory results as given in patent US11345710B2, “Imidazo[1,2-b]pyrimido[4,5-d]pyridazin-5(6H)-ones and the use thereof” (IMPACT THERAPEUTICS (SHANGHAI), INC, priority 2017, dated 2022).
Like-named read-outs stand apart in the source and are kept apart here.

How the values were obtained:
NCI-H1299 cells = test: MTT based cell viability assay on NCI-H1299 cells; conditions: read-out: IC50, growth inhibition on NCI-H1299 cells
Protocol: Determination of the Cell Growth Inhibiting Activity of 6-(2,6-dichlorophenyl)-2-((4-(4-methylpiperazin-1-yl)phenyl)amino)imidazo[1,2-b]pyrimido[4,5-d]pyridazin-5(6H)-one and Analogs on NCI-H1299 Cells Using a MTT Based Cell Viability Assay
The thawed NCI-H1299 cells were cultured and passaged to the third generation, and the growth state was good and the confluence was about 90%, which began to be used in the experiment. The NCI-H1299 cells were digested with trypsin, centrifuged at 800 rpm for 5 min, the supernatant was discarded, resuspended with fresh culture medium, and counted. 1000 Cells are seeded to each well of a 96-well plate. The cells are incubated at 37° C. in a 5% CO2 cell culture incubator overnight. The tested sample (including the tested compound and the reference compound AZD1775) was diluted continuously to 8 concentrations (the last concentration was negative control of DMSO) with a 1:3 and 1:10 dilution in DMSO respectively: 10 μM, 3.3 μM, 1 μM, 0.33 μM, 0.1 μM, 0.033 μM, 0.01 μM, 0 μM (the final concentration of DMSO was 1%). 5 μL of each concentration was added to 120 μL of culture medium (25 times diluted), and the mixture was shaken well. The overnight cells were taken and the culture medium was removed, 195 μL of fresh culture medium was added to each well, and 5 μL of diluted culture medium containing the corresponding concentration of the tested sample was added respectively, and the culture plate was then placed in the 5% CO2 cell culture incubator at 37° C. for 3 d. After removing the original solution and adding 100 μL of fresh serum-free DMEM culture medium containing MTT (0.5 mg/mL) per well, the culture was continued. The original solution was removed after 4 hrs and 100 μl DMSO was added to each well. The 96-well cell culture plates were shaken away from light for 10 min and readed in a multifunctional reader at 552/630/690 nm to give absorption values (OD values). The data were analyzed using a graphic software (Graph Pad Prism 5.0) and the inhibitory activity of the compound on cell proliferation was plotted in terms of cell survival and compound concentration. The IC50 values were fitted by the S-shaped dose-response curve equation as follows: Y=100/(1+10^(Log C−Log IC50)), where C was the concentration of testing compounds.

LoVo cells = test: MTT based cell viability assay on LoVo cells; conditions: read-out: IC50, growth inhibition on LoVo cells
Protocol: Determination of the Cell Growth Inhibiting Activity of 6-(2,6-dichlorophenyl)-2-((4-(4-methylpiperazin-1-yl)phenyl)amino)imidazo[1,2-b]pyrimido[4,5-d]pyridazin-5(6H)-one and Analogs Thereof on LoVo Cells Using a MTT Based Cell Viability Assay
The thawed LoVo cells were cultured and passaged to the third generation, and the growth state was good and the confluence was about 90%, which began to be used in the experiment. The LoVo cells were digested with trypsin, centrifuged at 800 rpm for 5 min, the supernatant was discarded, resuspended with fresh culture medium, and counted. 6000 Cells are seeded to each well of a 96-well cell culture plate. The cells were incubated at 37° C. in a 5% CO2 cell culture incubator overnight. The tested sample (including the tested compound and the reference compound AZD1775) was diluted continuously to 8 concentrations (the last concentration was negative control of DMSO) with a 1:3 and 1:10 dilution in DMSO respectively: 10 μM, 3.3 μM, 1 μM, 0.33 μM, 0.1 μM, 0.033 μM, 0.01 μM, 0 μM (the final concentration of DMSO was 1%). 5 μL of each concentration was added to 120 μL of culture medium (25 times diluted), and the mixture was shaken well. The overnight cells were taken and the culture medium was removed, 195 μL of fresh culture medium was added to each well, and 5 μL of diluted culture medium containing the corresponding concentration of the tested sample was added respectively, and the culture plate was then placed in the 5% CO2 cell culture incubator at 37° C. for 3 d. After removing the original solution and adding 100 μL of fresh serum-free DMEM culture medium containing MTT (0.5 mg/mL) per well, the culture was continued. The original solution was removed after 4 hrs and 100 μl DMSO was added to each well. The 96-well cell culture plates were shaken away from light for 10 min and readed in a multifunctional reader at 552/630/690 nm to give absorption values (OD values). The data were analyzed using a graphic software (Graph Pad Prism 5.0) and the inhibitory activity of the compound on cell proliferation was plotted in terms of cell survival and compound concentration. The IC50 values were fitted by the S-shaped dose-response curve equation as follows: Y=100/(1+10^(Log C−Log IC50)), where C was the concentration of testing compounds.

Wee1 kinase (h) = Wee1 kinase (h) (Homo sapiens, UniProt P30291); test: Wee1 kinase (h) detection method, [γ-33P]-ATP filter assay; type: biochemical; conditions: 10 μM ATP, 40 minutes at room temperature
Protocol: Wee1 kinase (h) was incubated with 20 mM Tris/HCl pH 8.5, 0.2 mM EDTA, 500 μM […], 10 mM MgAcetate and 10 μM [γ-^33P]-ATP. Then the stock solution of all compounds under test with 50× concentration in 100% DMSO was added to make the final concentration of 1/0.1/0.01 μM, and then mixed the mixture well. The reaction was initiated by the addition of the Mg/ATP mix. After incubation for 40 minutes at room temperature, the reaction was stopped by the addition of phosphoric acid to a concentration of 0.5%. 10 μL of the reaction liquor was then spotted onto a P30 filtermat and washed four times in 0.425% phosphoric acid and once in methanol prior to drying and scintillation counting. Each compound sample was duplicated in duplicate. The negative control was lack of all the components of Wee1 enzyme, and the positive was addition of 30% phosphoric acid to terminate the reaction. The Wee1 inhibitor AZD1775 was detected at 10/0.01 μM at the same experiment condition.

[1] = Homo sapiens, 72 h, NCI-H1299 cells, 3 d, MTT
[2] = Homo sapiens, 72 h, LoVo cells, 3 d, MTT

Sequence of Wee1 kinase (h) (P30291 whole entry): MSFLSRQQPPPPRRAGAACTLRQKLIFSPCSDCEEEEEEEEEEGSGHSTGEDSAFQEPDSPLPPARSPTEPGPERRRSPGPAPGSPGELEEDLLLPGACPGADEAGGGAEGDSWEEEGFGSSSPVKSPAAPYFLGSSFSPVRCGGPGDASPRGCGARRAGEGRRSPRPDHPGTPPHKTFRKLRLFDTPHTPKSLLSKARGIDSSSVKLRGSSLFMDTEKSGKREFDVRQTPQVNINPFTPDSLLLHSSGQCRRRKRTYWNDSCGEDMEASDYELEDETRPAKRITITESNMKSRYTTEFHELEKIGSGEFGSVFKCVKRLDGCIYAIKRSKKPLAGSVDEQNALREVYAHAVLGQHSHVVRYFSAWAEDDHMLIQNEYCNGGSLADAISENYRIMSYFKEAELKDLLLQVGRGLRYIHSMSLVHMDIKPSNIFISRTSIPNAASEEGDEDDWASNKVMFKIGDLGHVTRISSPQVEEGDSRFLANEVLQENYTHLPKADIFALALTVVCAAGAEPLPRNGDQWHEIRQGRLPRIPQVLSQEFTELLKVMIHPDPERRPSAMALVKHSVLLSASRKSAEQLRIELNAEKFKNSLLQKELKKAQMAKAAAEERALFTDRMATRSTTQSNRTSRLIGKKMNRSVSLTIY

| IC50 (NCI-H1299 cells; [1]) | IC50 (LoVo cells; [2]) | SMILES | IC50 (NCI-H1299 cells; Homo sapiens, NCI-H1299, 72 h) | IC50 (LoVo cells; Homo sapiens, LoVo, 72 h) | Inh. (%) of Wee1 kinase (Wee1 kinase (h); C 0.01 μm) | Inh. (%) of Wee1 kinase (Wee1 kinase (h); C 0.1 μm) | Inh. (%) of Wee1 kinase (Wee1 kinase (h); C 1 μm) | IC50 (NCI-H1299 cells; NCI-H1299 cells, 3 d, MTT) | IC50 (LoVo cells; LoVo cells, 3 d, MTT) |
| --- | --- | --- | --- | --- | --- | --- | --- | --- | --- |
|  |  | CN1CCN(c2ccc(Nc3ncc4c(=O)n(-c5c(Cl)cccc5Cl)n5ccnc5c4n3)cc2Cl)CC1 [Example 27, 6-(2,6-dichlorophenyl)-2-((3-chloro-4-(4-methylpiperazin-1-yl)phenyl)amino)imidazo[1,2-b]pyrimido[4,5-d]pyridazin-5(6H)-one] | 470 nM | 370 nM | 17% | 76% | 97% |  |  |
|  |  | Cc1cc(Nc2ncc3c(=O)n(-c4c(Cl)cccc4Cl)n4ccnc4c3n2)cc(F)c1N1CCN(C)CC1 [Example 28, 6-(2,6-dichlorophenyl)-2-((3-fluoro-5-methyl-4-(4-methylpiperazin-1-yl)phenyl)amino)imidazo[1,2-b]pyrimido[4,5-d]pyridazin-5(6H)-one] | 295 nM | 266 nM | 15% |  | 95% |  |  |
|  |  | Cc1cc(Nc2ncc3c(=O)n(-c4c(Cl)cccc4Cl)n4ccnc4c3n2)cc(Cl)c1N1CCN(C)CC1 [Example 29, 6-(2,6-dichlorophenyl)-2-((3-chloro-5-methyl-4-(4-methylpiperazin-1-yl)phenyl)amino)imidazo[1,2-b]pyrimido[4,5-d]pyridazin-5(6H)-one] | 400 nM | 272 nM | 21% | 65% | 93% |  |  |
|  |  | Cc1cc(Nc2ncc3c(=O)n(-c4c(Cl)cccc4Cl)n4ccnc4c3n2)ccc1N1C[C@@H](C)N(C(C)C)[C@@H](C)C1 [Example 34, 6-(2,6-dichlorophenyl)-2-((3-methyl-4-((3S,5R)-4-isopropyl-3,5-dimethylpiperazin-1-yl)phenyl)amino)imidazo[1,2-b]pyrimido[4,5-d]pyridazin-5(6H)-one] | 219 nM | 236 nM | 21% |  |  |  |  |
|  |  | CN(C)C1CCN(c2ccc(Nc3ncc4c(=O)n(-c5c(Cl)cccc5Cl)n5ccnc5c4n3)cc2Cl)CC1 [Example 35, 6-(2,6-dichlorophenyl)-2-((3-chloro-4-(4-(dimethylamino)piperidin-1-yl)phenyl)amino)imidazo[1,2-b]pyrimido[4,5-d]pyridazin-5(6H)-one] | 182 nM | 302 nM | 4% |  | 96% |  |  |
|  |  | Cc1cc(Nc2ncc3c(=O)n(-c4c(Cl)cccc4Cl)n4ccnc4c3n2)ccc1N1CCC(N(C)C)CC1 [Example 36, 6-(2,6-dichlorophenyl)-2-((3-methyl-4-(4-(dimethylamino)piperidin-1-yl)phenyl)amino)imidazo[1,2-b]pyrimido[4,5-d]pyridazin-5(6H)-one] | 135 nM | 206 nM | 22% |  | 98% |  |  |
|  |  | Cc1cc(Nc2ncc3c(=O)n(-c4c(Cl)cccc4Cl)n4ccnc4c3n2)cc(F)c1N1CCC(N(C)C)CC1 [Example 37, 6-(2,6-dichlorophenyl)-2-((3-fluoro-5-methyl-4-(4-(dimethylamino)piperidin-1-yl)phenyl)amino)imidazo[1,2-b]pyrimido[4,5-d]pyridazin-5(6H)-one] | 187 nM | 291 nM | 13% |  | 96% |  |  |
|  |  | COc1cc(Nc2ncc3c(=O)n(-c4c(Cl)cccc4Cl)n4ccnc4c3n2)cc(Cl)c1N1CCC(N(C)C)CC1 [Example 38, 6-(2,6-dichlorophenyl)-2-((3-chloro-5-methoxy-4-(4-(dimethylamino)piperidin-1-yl)phenyl)amino)imidazo[1,2-b]pyrimido[4,5-d]pyridazin-5(6H)-one] | 978 nM | 416 nM | 11% |  |  |  |  |
|  |  | Cc1cc(Nc2ncc3c(=O)n(-c4c(Cl)cccc4Cl)n4ccnc4c3n2)cc2c1C(C)(C)CN(C)C2 [Example 43, 6-(2,6-dichlorophenyl)-2-((2,4,4,4,5-tetramethyl-1,2,3,4-tetrahydroisoquinolin-7-yl)amino)imidazo[1,2-b]pyrimido[4,5-d]pyridazin-5(6H)-one] |  |  | 9% |  |  | 175 nM | 476 nM |
|  |  | Cc1cc(Nc2ncc3c(=O)n(-c4c(Cl)cccc4Cl)n4ccnc4c3n2)cc2c1CCN(C)C2 [Example 44, 6-(2,6-dichlorophenyl)-2-((2,5-dimethyl-1,2,3,4-tetrahydroisoquinolin-7-yl)amino)imidazo[1,2-b]pyrimido[4,5-d]pyridazin-5(6H)-one] | 164 nM | 371 nM | 4% |  |  |  |  |
| 270 nM | 333 nM | Cc1cc(Nc2ncc3c(=O)n(-c4c(F)cccc4Br)n4ccnc4c3n2)ccc1N1CCC(N(C)C)CC1 [Example 45, 6-(2-bromo-6-fluorophenyl)-2-((3-methyl-4-(4-(dimethylamino)piperidin-1-yl)phenyl)amino)imidazo[1,2-b]pyrimido[4,5-d]pyridazin-5(6H)-one] |  |  | 12% |  |  |  |  |
| 271 nM | 242 nM | Cc1cc(Nc2ncc3c(=O)n(-c4c(Cl)cccc4Br)n4ccnc4c3n2)ccc1N1CCN(C)CC1 [Example 46, 6-(2-bromo-6-chlorophenyl)-2-((3-methyl-4-(4-methylpiperazin-1-yl)phenyl)amino)imidazo[1,2-b]pyrimido[4,5-d]pyridazin-5(6H)-one] |  |  | 17% |  | 92% |  |  |
| 562 nM | 370 nM | CN1CCN(c2ccc(Nc3ncc4c(=O)n(-c5c(Cl)cccc5Br)n5ccnc5c4n3)cc2Cl)CC1 [Example 47, 6-(2-bromo-6-chlorophenyl)-2-((3-chloro-4-(4-methylpiperazin-1-yl)phenyl)amino)imidazo[1,2-b]pyrimido[4,5-d]pyridazin-5(6H)-one] |  |  |  |  | 96% |  |  |
